Patent US7022699B2, “Cyclohexenyl phenyl diazepines vasopressin and oxytocin receptor modulators” (Wyeth, priority 2001, dated 2006)

biological target: T1, human vasopressin V2 receptor subtype (Homo sapiens, UniProt P30518); assay: Vasopressin binding in CHO cell membranes expressing human vasopressin V2 subtype receptors ([3H]arginine vasopressin); conditions: 100 nM, values without parentheses
T1 construct: host or cells: CHO cells, stably transfected (pZeoSV vector); membranes
From the text: Vasopressin Binding in Chinese Hamster Ovary Cell Membranes Expressing Human Vasopressin V2 Subtype Receptors
Chinese Hamster Ovary (CHO) cells stably transfected with the human V2 subtype receptors were obtained from M. Thibonnier, Case Western Reserve University School of Medicine, Cleveland, Ohio.
A. Passaging and Amplification of Cells:
CHO cells transfected with the human vasopressin V2 subtype receptors obtained from M. Thibonnier (pZeoSV vector) are allowed to grow to confluency (approx. >90%) in T-150 flasks under sterile conditions, in a cell culture medium of F-12 Nutrient Mixture (HAM) with L-glutamine (Gibco Cat. #11765-054) containing 15 mM HEPES (Gibco Cat. #15630-080), 1% antibiotic/antimycotic (add 5 mL 100×, Gibco Cat. #15240-062 per 500 mL F-12), 250 μg/mL Zeocin (add 1.25 mL of 100 mg/mL Invitrogen R-250-01 per 500 mL F-12) and 10% Fetal Bovine Serum (Qualified, heat inactivated, Gibco Cat. #16140-063). The medium is removed by aspiration and the cells washed with 10 mL of Hank's Balanced Salt solution (Gibco Cat. #14175-095). The salt solution is removed by aspiration and the cells trypsinized with 5 mL of trypsin-EDTA (0.05% trypsin, 0.53 mM EDTA-4Na, Gibco Cat. #25300-070) for 1 min. The trypsin is removed by aspiration and the cells dislodged by tapping. Cell Culture medium (e.g. 30 mL for 1:30 split) is immediately added and mixed well to inactivate trypsin. 1 mL of detached cells is added to new culture flasks containing fresh Cell Culture medium (e.g. into 25 mL per T-150 flask), and mixed gently. The cells are incubated at 37° C. in 5% CO2. The medium is changed at 3 to 4 day interval (or as appropriate). The cells grow to confluency (approx. >75%–95%) within 7–8 days. All steps are done under sterile conditions. B. Membrane Preparation: The cells are washed twice gently with Hank's Balanced Salt solution (e.g. use 10 mL per T-150 flask). The excess solution is removed and the cells bathed for 15–30 min. in an enzyme-free Cell Dissociation Buffer (e.g. use 8 mL Hank's Based, Gibco Cat. # 13150-016 per T-150 flask) until cells are loosened. The contents are transferred to centrifuge tubes (50 mL size) kept in ice bath. All subsequent steps are done at 4° C. The tubes are centrifuged at 300×g for 15 min (1380 rpm on SORVAL, Model RT6000D, using rotor for 50 mL tubes). The supernatant is discarded and the cells suspended in homogeneizing buffer (10 mM Tris-HCl containing 0.25 M sucrose and 1 mM EDTA, pH 7.4) ensuring that the volume of the buffer is about ten times the volume of the cell pellet. The cells are pooled into a centrifuge tube (50 mL) and homogenized with Polytron at setting 6 for 10 sec. The homogenate is transferred into a Potter-Elvjehm homogeneizer and homogenized with 3 strokes. The homogenate is centrifuged at 1500×g for 60 min at 4° C. (3100 rpm using SORVAL, model RT6000D, using rotor for 50 mL tubes). The pellet is discarded. The supernatant is centrifuged at 100,000×g for 60 min. at 4° C. (Beckman L8-80M ultracentrifuge; spin at 37,500 rpm with rotor type 70 Ti for 50 mL tubes; 38,000 rpm with type 80Ti for 15 mL tubes; or 35,800 rpm with rotor type 45Ti). The supernantant is discarded and the pellet suspended in 3 to 4 mL of Tris buffer (50 mM TRIS-HCl, pH 7.4). The protein content is estimated by the Bradford or Lowry method. The volume of the membrane suspension is adjusted with the membrane buffer (50 mM Tris-HCl containing 0.1% BSA and 0.1 mM PMSF) to give 3.0 mg/mL (or as appropriate) of protein. The membranes are aliquoted and stored at −70° C. C. Radioligand Binding Assay:
In wells of a 96-well format microtiter plate, is added 90, 110 or 130 μL (to make up a final volume of 200 μL) of assay buffer containing 50 mM of Tris-HCl (pH 7.4), […], 1 mg % aprotinin, 1 mg % leupeptin, 2 mg % 1,10-phenanthroline, 10 mg % trypsin inhibitor, and 0.1 mM PMSF. The inhibitors are added on the day of the experiment. […]

T1 sequence (P30518 whole entry): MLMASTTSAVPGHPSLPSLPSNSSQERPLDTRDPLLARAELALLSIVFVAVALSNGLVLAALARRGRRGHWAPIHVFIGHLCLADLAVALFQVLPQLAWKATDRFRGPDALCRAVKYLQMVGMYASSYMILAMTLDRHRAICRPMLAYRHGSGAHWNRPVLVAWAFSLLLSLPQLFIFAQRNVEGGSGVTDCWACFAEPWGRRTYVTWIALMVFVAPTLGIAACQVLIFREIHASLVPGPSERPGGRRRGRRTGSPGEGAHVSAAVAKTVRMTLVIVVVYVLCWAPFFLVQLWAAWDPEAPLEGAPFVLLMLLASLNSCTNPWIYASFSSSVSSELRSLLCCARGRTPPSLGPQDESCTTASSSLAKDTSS

SMILES	inhibition at 0.1 µM [%]
CC1=C(c2ccc(C(=O)N3Cc4cccn4Cc4ccccc43)c(Cl)c2)CCCC1O (centres unmarked) [Example 14, (10,11-Dihydro-5H-pyrrolo[2,1-c][1,4]benzodiazepin-10-yl)-[2-chloro-4-(3-hydroxy-2-methyl-cyclohex-1-en-1-yl)-phenyl]-methanone]	38
CC1=C(c2ccc(C(=O)N3Cc4cccn4Cc4ccccc43)cc2C)CCCC1=O [Example 4, 3-[2-Methyl-4-(5H-pyrrolo[2,1-c][1,4]benzodiazepin-10(11H)-yl-carbonyl)phenyl]-2-methyl-cyclohex-2-en-1-one]	74
CC1(C)CCCC=C1c1ccc(C(=O)N2Cc3cccn3Cc3ccccc32)c(Cl)c1 [Example 12, (10,11-Dihydro-5H-pyrrolo[2,1-c][1,4]benzodiazepin-10-yl)-[2-chloro-4-(6,6-dimethyl-cyclohex-1-en-1-yl)-phenyl]-methanone]	82
CC1=C(c2ccc(C(=O)N3Cc4cccn4Cc4ccccc43)c(Cl)c2)CCCC1=O [Example 13, (10,11-Dihydro-5H-pyrrolo[2,1-c][1,4]benzodiazepin-10-yl)-[2-chloro-4-(2-methyl-3-oxo-cyclohex-1-en-1-yl)-phenyl]-methanone]	55
O=C(c1ccc(C2=CCCc3ccccc32)cc1Cl)N1Cc2cccn2Cc2ccccc21 [Example 11, (10,11-Dihydro-5H-pyrrolo[2,1-c][1,4]benzodiazepin-10-yl)-[2-chloro-4-(3,4-dihydro-naphthalen-1-yl)-phenyl]-methanone]	90

Further lines, results first:

inhibition at 0.1 µM [%]	SMILES
18	CC1(C)C=C(c2ccc(C(=O)N3Cc4cccn4Cc4ccccc43)cc2)CC(C)(C)C1 [Example 23, (10,11-Dihydro-5H-pyrrolo[2,1-c][1,4]benzodiazepin-10-yl)-[4-(3,3,5,5-tetramethyl-cyclohex-1-en-1-yl)-phenyl]-methanone]
5	CC1=C(c2ccc(C(=O)N3Cc4cccn4Cc4ccccc43)cc2)C(C)CCC1 (centres unmarked) [Example 19, (10,11-Dihydro-5H-pyrrolo[2,1-c][1,4]benzodiazepin-10-yl)-[4-(2,6-dimethyl-cyclohex-1-en-1-yl)-phenyl]-methanone]
0	CC1=C(c2ccc(C(=O)N3Cc4cccn4Cc4ccccc43)cc2C)C(C)CCC1 (centres unmarked) [Example 33, (10,11-Dihydro-5H-pyrrolo[2,1-c][1,4]benzodiazepin-10-yl)-[4-(2,6-dimethyl-cyclohex-1-en-1-yl)-3-methyl-phenyl]-methanone]
58	CC1=C(c2ccc(C(=O)N3Cc4cccn4Cc4ccccc43)cc2)CCCC1O (centres unmarked) [Example 27, (10,11-Dihydro-5H-pyrrolo[2,1-c][1,4]benzodiazepin-10-yl)-[4-(3-hydroxy-2-methyl-cyclohex-1-en-1-yl)-phenyl]-methanone]
13	Cc1cc(C(=O)N2Cc3cccn3Cc3ccccc32)ccc1C1=CCCCC1C (centres unmarked) [Example 29, (10,11-Dihydro-5H-pyrrolo[2,1-c][1,4]benzodiazepin-10-yl)-[3-methyl-4-(6-methyl-cyclohex-1-en-1-yl)-phenyl]-methanone]
27	CC1=C(c2ccc(C(=O)N3Cc4cccn4Cc4ccccc43)cc2C)CCCC1N (centres unmarked) [Example 45, [4-(3-Amino-2-methyl-cyclohex-1-en-1-yl)-3-methyl-phenyl]-(10,11-dihydro-5H-pyrrolo[2,1-c][1,4]benzodiazepin-10-yl)-methanone]
45	CC1=C(c2ccc(C(=O)N3Cc4cccn4Cc4ccccc43)cc2C)CCC[C@@H]1O (single isomer, unassigned) [Example 43]
13	Cc1cc(C(=O)N2Cc3cccn3Cc3ccccc32)ccc1C1=CCCCC1(C)C [Example 30, (10,11-Dihydro-5H-pyrrolo[2,1-c][1,4]benzodiazepin-10-yl)-[4-(6,6-dimethyl-cyclohex-1-en-1-yl)-3-methyl-phenyl]-methanone]
4	Cc1cc(C(=O)N2Cc3cccn3Cc3ccccc32)ccc1C1=CCCCC1C(C)(C)C (centres unmarked) [Example 34, (10,11-Dihydro-5H-pyrrolo[2,1-c][1,4]benzodiazepin-10-yl)-[4-(6-tert-butyl-cyclohex-1-en-1-yl)-3-methyl-phenyl]-methanone]

same assay, conditions: values in parentheses

IC50 [µM]	SMILES
0.176	COc1cc(C2=CCCCC2)c(Cl)cc1C(=O)N1Cc2cccn2Cc2ccccc21 [Example 1, 10-(5-Chloro-4-cyclohex-1-en-1-yl-2-methoxybenzoyl)-10,11-dihydro-5H-pyrrolo[2,1-c][1,4]benzodiazepine]
0.295	CC1CCCC=C1c1ccc(C(=O)N2Cc3cccn3Cc3ccccc32)cc1 (centres unmarked) [Example 16, (10,11-Dihydro-5H-pyrrolo[2,1-c][1,4]benzodiazepin-10-yl)-[4-(6-methyl-cyclohex-1-en-1-yl)-phenyl]-methanone]
0.066	Cc1cc(C(=O)N2Cc3cccn3Cc3ccccc32)ccc1C1=CCCc2ccccc21 [Example 3, (10,11-Dihydro-5H-pyrrolo[2,1-c][1,4]benzodiazepin-10-yl)-[4-(3,4-dihydro-naphthalen-1-yl)-3-methyl-phenyl]-methanone]
